Values quoted from earlier work in article PMC3352981 (Bioorganic & medicinal chemistry letters, 2012).

Key:
BoNT/A [1] = test system: BoNT/A
BoNT/A [2] = settings: mouse

Compound: CC(C)(C)c1ccc(C=CC(=O)NO)cc1 [4-tert-butylcinnamyl hydroxamate]
- potency (in words) (BoNT/A [1]): dramatic loss of potency

Compound: O=C(/C=C/c1ccc(Cl)cc1Cl)NO [Compound 1, 2,4-dichlorocinnamyl hydroxamic acid]
- in vivo activity (BoNT/A [2]): marginal in vivo activity
